Where a SMILES comes first, the peptide text is derived from it. [ ]: non-standard residue; d: D form. The star is where a group is joined. Acetyl(2-naphthyloxy) = O=C(COc1ccc2ccccc2c1)*; Acetyl(2-naphthyl) = O=C(Cc1ccc2ccccc2c1)*; X7 = O=C(CN1CCC(C(=O)*)CC1)c1ccc2ccccc2c1; NMeI = CC[C@H](C)[C@H](NC)C(=O)O; tBuAla = CC(C)(C)C[C@H](N)C(=O)O; Cit = NC(=O)NCCC[C@H](N)C(=O)O; Phg = N[C@H](C(=O)O)c1ccccc1; Tle = CC(C)(C)[C@H](N)C(=O)O; Orn = NCCC[C@H](N)C(=O)O; GABA = NCCCC(=O)O
Biological target: T1, specific ANP receptor sites on BASM or BAE cells (Bos taurus, UniProt P10730)
T1 construct: specific receptor sites on BASM or BAE cells; endogenous in cells; host or cells: cultured BASM and BAE cells
T1 sequence (P10730 42-537): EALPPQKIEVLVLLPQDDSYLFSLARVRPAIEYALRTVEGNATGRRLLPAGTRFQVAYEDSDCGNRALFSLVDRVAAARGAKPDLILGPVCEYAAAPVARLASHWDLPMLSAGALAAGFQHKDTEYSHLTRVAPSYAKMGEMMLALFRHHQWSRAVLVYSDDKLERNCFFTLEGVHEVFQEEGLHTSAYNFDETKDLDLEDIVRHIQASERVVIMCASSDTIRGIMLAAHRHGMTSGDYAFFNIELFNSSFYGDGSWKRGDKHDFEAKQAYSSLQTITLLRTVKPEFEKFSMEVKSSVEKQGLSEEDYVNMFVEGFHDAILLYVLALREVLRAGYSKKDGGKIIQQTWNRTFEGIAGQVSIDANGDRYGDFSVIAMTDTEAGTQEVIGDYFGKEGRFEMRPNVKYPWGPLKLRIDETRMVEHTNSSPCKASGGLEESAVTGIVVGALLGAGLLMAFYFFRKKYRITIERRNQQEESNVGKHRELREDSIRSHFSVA
Test: Competitive displacement receptor binding of (125I)-rANP(126-150) on cultured cells
Parameters: species or system bovine
Details: for Ki(app): concentration of unlabeled peptide displacing 50% of maximal binding of 0.5 nM (125I)-rANP(126-150), BASM or BAE cells
Text: Analogous "competitive displacement" receptor binding assays are considered commonplace in the art for examining specific ligand-receptor interactions.
Assuming these ANP analogs act at one or more ANP receptor sites, then increased receptor affinity should reflect increased biological potency.

Ki(app) | receptor binding / activity as judged by Ki, in words | SMILES
26.5 nM |  | CC[C@H](C)[C@H](NC(=O)[C@H](CCCNC(=N)N)NC(=O)[C@H](CC(=O)O)NC(=O)[C@@H](NC(=O)[C@H](CCCNC(=N)N)NC(=O)C1CCN(CC(=O)c2ccc3ccccc3c2)CC1)[C@@H](C)CC)C(N)=O [AP574] (X7-RIDRI-NH2)
194.0 nM | very low, if any, activity | CC[C@H](C)[C@H](NC(=O)[C@H](CCCNC(=N)N)NC(=O)[C@H](CC(=O)O)NC(=O)[C@@H](NC(=O)[C@H](CCCNC(=N)N)NC(=O)CNC(=O)CNC(=O)Cc1ccc2ccccc2c1)c1ccccc1)C(N)=O [AP575, (2-NA)--G--G--R--Phg--D--R--I--NH2] ({Acetyl(2-naphthyl)}-GGR[Phg]DRI-NH2)
12.0 nM |  | CC[C@H](C)[C@H](NC(=O)[C@H](CCCNC(=N)N)NC(=O)[C@H](CC(=O)O)NC(=O)[C@H](CC(C)(C)C)NC(=O)[C@H](CCCNC(=N)N)NC(=O)CNC(=O)CNC(=O)Cc1ccc2ccccc2c1)C(N)=O [AP590, (2-NA)--G--G--R--tBuA--D--R--I--NH2] ({Acetyl(2-naphthyl)}-GGR[tBuAla]DRI-NH2)
14.0 nM |  | CC[C@H](C)[C@H](NC(=O)[C@H](CCCNC(=N)N)NC(=O)[C@H](CC(=O)O)NC(=O)[C@@H](NC(=O)[C@H](CCCNC(=N)N)NC(=O)CNC(=O)CNC(=O)Cc1ccc2ccccc2c1)C(C)(C)C)C(N)=O [AP591, (2-NA)--G--G--R--tBuG--D--R--I--NH2] ({Acetyl(2-naphthyl)}-GGR[Tle]DRI-NH2)
25.0 nM |  | CC[C@H](C)[C@H](NC(=O)[C@H](CCCN)NC(=O)[C@H](CC(=O)O)NC(=O)[C@@H](NC(=O)[C@H](CCCNC(=N)N)NC(=O)CNC(=O)CNC(=O)Cc1ccc2ccccc2c1)[C@@H](C)CC)C(N)=O [AP592, (2-NA)--G--G--R--I--D--Orn--I--NH2] ({Acetyl(2-naphthyl)}-GGRID[Orn]I-NH2)
55.0 nM |  | CC[C@H](C)[C@H](NC(=O)[C@H](CCCNC(N)=O)NC(=O)[C@H](CC(=O)O)NC(=O)[C@@H](NC(=O)[C@H](CCCNC(=N)N)NC(=O)CNC(=O)CNC(=O)Cc1ccc2ccccc2c1)[C@@H](C)CC)C(N)=O [AP593, (2-NA)--G--G--R--I--D--Cit--I--NH2] ({Acetyl(2-naphthyl)}-GGRID[Cit]I-NH2)
15.0 nM |  | CC[C@H](C)[C@H](NC(=O)[C@H](CCCNC(=N)N)NC(=O)CNC(=O)CNC(=O)Cc1ccc2ccccc2c1)C(=O)N[C@@H](CC(=O)O)C(=O)N[C@@H](CCCNC(=N)N)C(=O)N[C@@H](CC(C)(C)C)C(N)=O [AP594, (2-NA)--G--G--R--I--D--R--tBuA--NH2] ({Acetyl(2-naphthyl)}-GGRIDR[tBuAla]-NH2)
100.0 nM |  | CC[C@H](C)[C@H](NC(=O)[C@H](CCCNC(=N)N)NC(=O)CNC(=O)CNC(=O)Cc1ccc2ccccc2c1)C(=O)N[C@@H](CC(=O)O)C(=O)N[C@@H](CCCNC(=N)N)C(=O)N[C@H](C(N)=O)c1ccccc1 [AP595, (2-NA)--G--G-- R--I--D--R--Phg--NH2] ({Acetyl(2-naphthyl)}-GGRIDR[Phg]-NH2)
87.3 nM |  | CCNC(=O)[C@H]([C@@H](C)CC)N(C)C(=O)[C@H](CCCNC(=N)N)NC(=O)[C@H](CC(=O)O)NC(=O)[C@@H](NC(=O)[C@H](CCCNC(=N)N)NC(=O)CNC(=O)CNC(=O)Cc1ccc2ccccc2c1)[C@@H](C)CC [AP596, (2-NA)--G--G--R--I--D--R--NMeIle--NH(ethyl)] ({Acetyl(2-naphthyl)}-GGRIDR[NMeI]-NHEt)

SMILES | Ki(app) | receptor binding / activity as judged by Ki, in words
CC[C@H](C)[C@H](NC(=O)[C@H](CCCNC(=N)N)NC(=O)[C@H](CC(=O)O)NC(=O)[C@@H](NC(=O)[C@H](CCCNC(=N)N)NC(=O)CCCNC(=O)COc1ccc2ccccc2c1)[C@@H](C)CC)C(=O)NCC(=O)N[C@@H](C)C(N)=O [AP576, (2-NOA)--NH(CH2)3 CO--R--I--D--R--I--G--A--NH2] ({Acetyl(2-naphthyloxy)-GABA}-RIDRIGA-NH2) | 16.0 nM | 
